Source: ChEMBL document CHEMBL5512619, “Anticancer mechanism of coumarin-based derivatives” (Eur J Med Chem, 2024)
Blank lines part the entries; values can stand above or below the compound they belong to.

Tests used:
[1] = system: T98G; experiment: Induction of apoptosis in human T98G cells relative to control; type: functional
[2] = system: KB; experiment: Antiproliferative activity against human KB cells measured after 48 hrs by MTT assay; type: functional, cell-based
[3] = target: T1, Carbonic anhydrase 1 (Homo sapiens, UniProt P00915); experiment: Binding affinity to human CA1 assessed as inhibition constant incubated for 6 hrs by phenol red dye based stopped flow CO2 hydration assay
T1 sequence (P00915 whole entry): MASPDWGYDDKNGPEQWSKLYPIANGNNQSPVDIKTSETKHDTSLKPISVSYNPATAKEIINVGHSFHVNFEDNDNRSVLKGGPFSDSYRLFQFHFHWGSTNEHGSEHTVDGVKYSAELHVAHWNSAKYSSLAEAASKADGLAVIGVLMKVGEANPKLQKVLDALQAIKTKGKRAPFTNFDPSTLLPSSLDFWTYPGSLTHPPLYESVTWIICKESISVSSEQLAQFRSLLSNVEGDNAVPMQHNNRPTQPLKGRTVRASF

[4] = target: Vascular endothelial growth factor receptor 2 (Homo sapiens, UniProt P35968); experiment: Inhibition of VEGFR2 (unknown origin)
Chain of Vascular endothelial growth factor receptor 2 (P35968 whole entry): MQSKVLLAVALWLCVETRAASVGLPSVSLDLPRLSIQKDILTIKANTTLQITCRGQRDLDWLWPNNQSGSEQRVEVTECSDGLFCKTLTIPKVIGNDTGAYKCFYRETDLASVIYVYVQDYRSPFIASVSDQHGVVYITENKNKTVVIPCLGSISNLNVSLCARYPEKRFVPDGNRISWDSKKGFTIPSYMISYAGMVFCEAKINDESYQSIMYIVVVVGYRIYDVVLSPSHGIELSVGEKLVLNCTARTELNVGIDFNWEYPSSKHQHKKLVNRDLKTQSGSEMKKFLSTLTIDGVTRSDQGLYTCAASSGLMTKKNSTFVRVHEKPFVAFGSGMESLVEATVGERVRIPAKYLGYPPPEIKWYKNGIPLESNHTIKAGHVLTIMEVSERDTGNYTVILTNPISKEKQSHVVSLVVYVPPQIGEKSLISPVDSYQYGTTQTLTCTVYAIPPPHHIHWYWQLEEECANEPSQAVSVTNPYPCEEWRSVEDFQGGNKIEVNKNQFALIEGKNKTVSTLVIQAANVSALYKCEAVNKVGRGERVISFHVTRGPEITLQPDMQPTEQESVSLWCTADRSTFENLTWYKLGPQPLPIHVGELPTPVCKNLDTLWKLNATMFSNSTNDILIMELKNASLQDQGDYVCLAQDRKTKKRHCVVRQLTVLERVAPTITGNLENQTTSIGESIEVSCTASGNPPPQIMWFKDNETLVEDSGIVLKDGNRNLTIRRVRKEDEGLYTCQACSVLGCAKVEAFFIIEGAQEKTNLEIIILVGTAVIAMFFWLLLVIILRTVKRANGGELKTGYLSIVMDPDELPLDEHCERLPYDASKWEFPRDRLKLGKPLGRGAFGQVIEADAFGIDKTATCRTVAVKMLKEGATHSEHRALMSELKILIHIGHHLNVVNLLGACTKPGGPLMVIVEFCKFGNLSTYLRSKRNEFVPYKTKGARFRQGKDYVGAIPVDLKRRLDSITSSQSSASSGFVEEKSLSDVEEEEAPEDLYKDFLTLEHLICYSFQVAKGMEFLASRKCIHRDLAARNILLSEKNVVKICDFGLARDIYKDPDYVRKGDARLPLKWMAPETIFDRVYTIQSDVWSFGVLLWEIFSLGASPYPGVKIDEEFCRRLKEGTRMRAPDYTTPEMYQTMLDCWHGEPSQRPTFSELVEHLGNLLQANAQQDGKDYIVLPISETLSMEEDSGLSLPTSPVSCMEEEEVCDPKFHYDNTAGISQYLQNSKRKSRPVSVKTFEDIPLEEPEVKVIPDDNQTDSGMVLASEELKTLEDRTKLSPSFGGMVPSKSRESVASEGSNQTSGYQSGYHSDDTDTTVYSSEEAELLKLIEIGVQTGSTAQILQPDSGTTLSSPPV

[5] = system: MCF7; experiment: Cytotoxicity against human MCF-7 cells; type: functional, cell-based
[6] = Inhibition of DNA topoisomerase II (unknown origin)
[7] = system: MCF7; experiment: Cytotoxicity against human MCF-7 cells relative to control; type: functional
[8] = system: HCT-116; experiment: cells; conditions: Homo sapiens, HCT-116, 72 h
Description: Antiproliferative activity against human HCT-116 cells measured after 72 hrs by SRB method

[9] = system: HeLa; experiment: Antiproliferative activity against human HeLa cells measured after 72 hrs by SRB method; type: functional, cell-based
[10] = system: MCF7; experiment: Antiproliferative activity against human MCF7 cells measured after 72 hrs by SRB method; type: functional, cell-based; conditions: MCF7, 72 h
[11] = system: HepG2; experiment: Antiproliferative activity against human HepG2 cells measured after 72 hrs by SRB method; type: functional, cell-based; conditions: HepG2, 72 h
[12] = system: HepG2; experiment: Induction of apoptosis in human HepG2 cells assessed as necrotic cells at 1 time IC50 incubated for 24 hrs by annexin V-FITC and PI staining based flow cytometry analysis relative to control; type: functional
[13] = system: HepG2; experiment: Cytotoxicity against human HepG2 cells incubated for 2 days by Neutral Red staining based assay; type: functional, cell-based; conditions: HepG2, 48 h
[14] = system: SK-LU-1; experiment: Cytotoxicity against human SK-LU-1 cells incubated for 2 days by Neutral Red staining based assay; type: functional, cell-based; conditions: SK-LU-1, 48 h
[15] = system: HepG2; experiment: Induction of apoptosis in human HepG2 cells assessed as necrotic cells at 2 times IC50 incubated for 12 hrs by annexin V-FITC and PI staining based flow cytometry analysis relative to control; type: functional
[16] = system: HCT-116; experiment: Cytotoxicity against human HCT-116 cells incubated for 2 days by Neutral Red staining based assay; type: functional, cell-based; conditions: HCT-116, 48 h
[17] = Cytotoxicity against African green monkey Vero cells incubated for 2 days by Neutral Red staining based assay; type: toxicity, cell-based, Chlorocebus sabaeus
[18] = system: HepG2; experiment: Induction of apoptosis in human HepG2 cells at 2 times IC50 incubated for 24 hrs by annexin V-FITC and PI staining based flow cytometry analysis relative to control; type: functional
[19] = system: HepG2; experiment: Induction of apoptosis in human HepG2 cells at 1 time IC50 incubated for 24 hrs by annexin V-FITC and PI staining based flow cytometry analysis relative to control; type: functional
[20] = system: HepG2; experiment: Induction of apoptosis in human HepG2 cells assessed as necrotic cells at 1 time IC50 incubated for 12 hrs by annexin V-FITC and PI staining based flow cytometry analysis relative to control; type: functional
[21] = system: HepG2; experiment: Induction of apoptosis in human HepG2 cells assessed as necrotic cells at 2 times IC50 incubated for 24 hrs by annexin V-FITC and PI staining based flow cytometry analysis relative to control; type: functional
[22] = system: RT-4; experiment: Cytotoxicity against human RT-4 cells assessed as inhibition of cell growth; type: functional, cell-based
[23] = system: LCLC-103H cell line; experiment: Cytotoxicity against human LCLC-103H cell line assessed as inhibition of cell growth; type: functional, cell-based
[24] = system: A-427; experiment: Cytotoxicity against human A-427 cells assessed as inhibition of cell growth; type: functional, cell-based
[25] = system: HeLa; experiment: Antiproliferative activity against human HeLa cells incubated for 24 hrs by MTT assay; type: functional, cell-based
[26] = target: Carbonic anhydrase 12 (Homo sapiens, UniProt O43570); experiment: Binding affinity to human CA12 assessed as inhibition constant incubated for 10 mins by phenol red dye based stopped flow CO2 hydration assay
Chain of Carbonic anhydrase 12 (O43570 whole entry): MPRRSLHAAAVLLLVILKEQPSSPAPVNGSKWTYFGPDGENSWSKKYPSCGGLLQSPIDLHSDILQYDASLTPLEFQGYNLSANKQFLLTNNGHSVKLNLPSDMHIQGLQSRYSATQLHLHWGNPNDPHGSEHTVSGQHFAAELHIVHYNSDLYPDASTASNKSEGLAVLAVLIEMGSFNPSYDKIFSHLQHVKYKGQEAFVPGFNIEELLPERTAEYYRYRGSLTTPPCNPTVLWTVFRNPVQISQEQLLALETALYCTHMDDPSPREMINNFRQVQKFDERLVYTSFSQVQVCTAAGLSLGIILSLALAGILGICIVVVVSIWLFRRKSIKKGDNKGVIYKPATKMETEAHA

[27] = target: Carbonic anhydrase 2 (Homo sapiens, UniProt P00918); experiment: Binding affinity to human CA2 assessed as inhibition constant incubated for 10 mins by phenol red dye based stopped flow CO2 hydration assay
[28] = target: Carbonic anhydrase 9 (Homo sapiens, UniProt Q16790); experiment: Binding affinity to human CA9 assessed as inhibition constant incubated for 10 mins by phenol red dye based stopped flow CO2 hydration assay
[29] = target: T1, Carbonic anhydrase 1; experiment: Binding affinity to human CA1 assessed as inhibition constant incubated for 10 mins by phenol red dye based stopped flow CO2 hydration assay
[30] = target: Steryl-sulfatase (Homo sapiens, UniProt P08842); experiment: Inhibition of STS in human placental microsome; type: microsomes
Chain of Steryl-sulfatase (P08842 whole entry): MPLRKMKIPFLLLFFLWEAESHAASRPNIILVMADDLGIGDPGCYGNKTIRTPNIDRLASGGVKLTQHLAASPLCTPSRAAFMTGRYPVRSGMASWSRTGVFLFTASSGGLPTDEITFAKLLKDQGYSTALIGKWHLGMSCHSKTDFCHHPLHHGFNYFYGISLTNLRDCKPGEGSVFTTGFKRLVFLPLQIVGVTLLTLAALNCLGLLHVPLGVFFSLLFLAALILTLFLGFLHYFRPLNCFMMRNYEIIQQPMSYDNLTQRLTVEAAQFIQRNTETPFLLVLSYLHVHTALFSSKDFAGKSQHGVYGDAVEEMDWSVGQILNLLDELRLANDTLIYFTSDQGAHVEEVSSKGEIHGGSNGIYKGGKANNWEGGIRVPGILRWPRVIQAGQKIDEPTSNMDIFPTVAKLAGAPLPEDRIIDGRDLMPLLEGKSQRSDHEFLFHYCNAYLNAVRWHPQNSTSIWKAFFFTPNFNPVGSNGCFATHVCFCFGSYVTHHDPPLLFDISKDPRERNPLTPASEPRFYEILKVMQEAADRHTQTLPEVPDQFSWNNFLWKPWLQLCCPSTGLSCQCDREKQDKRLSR

[31] = system: CCRF-CEM; experiment: Antiproliferative activity against human CCRF-CEM cells assessed as reduction in cell viability measured after 24 hrs by MTT assay relative to control; type: functional; conditions: pooled result: one value given for 6 cell lines, strains, targets or settings
[32] = system: MCF7; experiment: Antiproliferative activity against human MCF7 cells measured after 72 hrs by MTT assay; type: functional, cell-based; conditions: MCF7, 72 h
[33] = system: MDA-MB-231; experiment: Cytotoxicity against human MDA-MB-231 cells by MTT assay; type: functional, cell-based
[34] = target: Tubulin; experiment: Inhibition of tubulin polymerization (unknown origin) by spectrophotometric method; type: protein-complex assay, Homo sapiens
[35] = system: MCF7; experiment: Cytotoxicity against human MCF7 cells by MTT assay; type: functional, cell-based

- IC50 [2]: 200 µM
SMILES: O=c1ccc2ccc(O)cc2o1 [UMBELLIFERONE]
- Activity [1]: 15%

- Ki [3]: > 10 µM
SMILES: Cc1cc(=O)oc2cc(OCc3cn(CCCCCCCCCCCCOc4ccc5ccc(=O)oc5c4)nn3)ccc12

- IC50 [4]: 23.6 µM
- IC50 [6]: 4.1 µM
SMILES: COC(=O)C(CCSC)NC(=O)CCNC(=O)c1cc2ccccc2oc1=O (stereo not drawn)
- IC50 [5]: 5.85 µM
- Activity [7]: 97.35%

- IC50 [8]: 3.95 µM
- IC50 [9]: 3.95 µM
- IC50 [10]: 3.95 µM
- IC50 [11]: 3.95 µM
SMILES: Cc1c2c3c(ccc(C)c3oc1=O)[C@](C)(O)CO2

SMILES: C=CC(C)(C)c1cc2c(O)c3c(c(C(C)(C)C=C)c2oc1=O)OC(C)(C)C=C3 [CLAUSARIN]
- Activity [12]: 1.6%
- IC50 [13]: 7.6 µM
- IC50 [14]: 6.9 µM
- Activity [15]: 27.4%
- IC50 [16]: 44.6 µM
- IC50 at 2 days [17]: 78.2 µM
- Activity [18]: 64.2%
- Activity [19]: 49.7%
- Activity [20]: 6.8%
- Activity [21]: 2.7%

SMILES: CCN(CC)c1ccc2cc(-c3nc4ccccc4o3)c(=N)oc2c1
- IC50 [22]: < 0.01 µM
- IC50 [23]: < 0.01 µM
- IC50 [24]: < 0.01 µM

SMILES: COc1c2c(cc3oc(=O)ccc13)OC(C)(C)C=C2 [XANTHOXYLETIN]
- Activity [15]: 2.9%
- Activity [20]: 2.5%

- IC50 [25]: 3.25 µM
SMILES: CC(C)=CC[C@@H](OCCc1ccc(C(=O)/N=C/c2c(Cl)c3ccccc3oc2=O)cc1)C1=CC(=O)c2c(O)ccc(O)c2C1=O

- Ki [26]: 0.0306 µM
- Ki [27]: 0.0994 µM
- Ki [28]: 0.0306 µM
- Ki [29]: 0.0994 µM
SMILES: Cc1ccc(C(=O)Nc2ccc3c(c2)C=CS(=O)(=O)O3)cc1S(=O)(=O)N1C[C@@H](C)O[C@@H](C)C1

SMILES: CCCCCCc1c(C)c2ccc(OS(N)(=O)=O)cc2oc1=O
- IC50 [30]: 0.008 µM

SMILES: O=C(COc1ccccc1)Nc1ccc2oc(=O)ccc2c1
- Activity [31]: 61%

- IC50 [32]: 73 µM
SMILES: O=c1ccc2ccc(O)c(O)c2o1 [DAPHNETIN]

- IC50 [34]: 9.2 µM
SMILES: COc1ccc2c3c(c(=O)oc2c1)CC(C(C)(O)CC/C=C(\C)CCC=C(C)C)O3 (stereo not drawn)
- IC50 [33]: 15.6 µM
- IC50 [35]: 19.8 µM

SMILES: Cc1c(Cc2ccccc2)c(=O)oc2cc(OS(N)(=O)=O)ccc12
- IC50 [30]: 0.032 µM
